Results on 91 compounds are retold here after a melting point compilation (Tetko et al.; mined from patent text by program, amines drawn as free bases though some values may be those of a salt).

The compound `COc1ccc(CC2SC(=O)NC2=O)c2ccc(=O)n(C)c12` (stereo unspecified) registered a melting point of 254 to 255 °C.
The compound `O=C(O)c1nc(CCCc2ccccc2)c[nH]1` showed a melting point of 148 to 150 °C.
As for `O=C(O)c1ccc([N+](=O)[O-])c(S(=O)(=O)CCO)c1`, the figure is 176 to 177 °C.
`CCCn1nc(OCc2ccc3ccccc3n2)cc1CO` gave a melting point of 95 to 96 °C.
Compound `COc1ccc(CN2CCc3c(cnc4[nH]ncc34)C2)cc1` yielded a melting point of 184 to 186 °C.
In the case of `CCc1c(NC(=O)c2ccc(Br)cc2)ccc2cc(CO)cnc12`, the melting point fell in the range of 202 to 204 °C.
As for `CCOC(=NC(=O)Nc1ccc(OC(F)(F)F)cc1)c1c(F)cccc1F`, the figure is 98 to 100 °C; as for `CCN(CC)CCNc1ccnc2cc(C(F)(F)F)ccc12`, 122 to 124 °C; as for `COc1ccc(Nc2ccccc2)c(NS(C)(=O)=O)c1`, 109 to 111 °C.
As for `Cc1cc(C(=NO)c2cccs2)cc(C)c1OCC(=O)O`, the figure is 152 °C; as for `C=CCOc1ccc(C(C)=O)c(NC(C)=O)c1`, 63 to 64 °C; as for `Cn1ccnc1Sc1ccc(Nc2c(C#N)cnc3cc(-c4ccc(CN5CCNCC5)cc4)ccc23)cc1Cl`, 140 to 142 °C.
As for `N#Cc1cccc(C=C2c3ccccc3CCc3ccccc32)c1`, the figure is 116 °C; as for `COc1cc(COc2nn(-c3ccccc3)cc2CC#N)ccc1OCc1nc(-c2ccccc2)oc1C`, 137 to 138 °C.
Compound `CC(C)(C)C(NC(=O)c1cccc(-c2ccccc2)c1)Nc1c(Nc2cccnc2)c(=O)c1=O` (stereo unspecified) returned a melting point of 240 to 241 °C.
As for `Nc1nc(OCc2cccs2)ncc1F`, the figure is 92 to 94 °C; as for `CC(=O)CC(=O)C=Cc1c[nH]c2ccccc12`, 155 to 158 °C; as for `COc1cn(-c2cc(F)c(N3CCOCC3)cc2F)nc(-c2ccnn2-c2ccccc2)c1=O`, 211 to 212 °C.
The result for `Nc1ccc(N2CCN(c3ccccn3)CC2)cc1` reads 119 to 120 °C; that for `C=CCN1CCC2(c3cccc(O)c3)CCCC2C1` (stereo unspecified), 106 to 108 °C.
As for `Cc1ccc(NC(=O)c2ccc(/C=C/C(=O)NOC3CCCCO3)cc2)cc1Nc1nc(-c2cccnc2)cs1` (stereo unspecified), the figure is 168 °C.
`CCCCC1N=CC(CSc2ccccc2C(=O)O)(Cc2ccc(C(=O)O)c3ccccc23)N1` (stereo unspecified) came in with a melting point of 272 to 274 °C.
As for `CCc1c(N)c(C(N)=O)nn1CCN1CCOCC1`, the figure is 152 to 153 °C; as for `O=C(NCCO)c1cccc(-c2ccc3cnn(-c4ccc(Cl)cc4Cl)c3n2)c1`, 169 to 170 °C.
`CCOc1cc(N(CC)CC)ccc1C1(N(c2ccc(N(C)C)cc2)c2ccc(N(C)C)cc2)OC(=O)c2ccccc21` (stereo unspecified): the melting point lay in the range of 58 to 69 °C.
Compound `CC(C)(C)C(=O)C(CCCCOc1ccccc1)n1cncn1` (stereo unspecified) registered a melting point of 59 to 62 °C.
The result for `NCCn1c(=O)nc(-c2ccc3c(c2)OCO3)c2cc3c(cc21)OCO3` reads 115 to 120 °C; that for `COC(=O)c1ccc(OC2=C3N=C4CCCCC4=C3C(Cc3ccccc3F)C=C2)o1` (stereo unspecified), 121 to 122 °C.
As for `O=C1CCCc2onc(-c3ccccc3F)c21`, the figure is 82 to 83 °C; as for `c1ccc2c(OC[C@H]3CCCN3c3ccnc4ncnn34)cccc2c1`, 74 to 75 °C; as for `NNC(=S)NCC1CC(c2ccc(Cl)cc2)=NO1` (stereo unspecified), 115 to 117 °C.
Compound `COc1cccc(P2(=O)c3ccccc3CN2c2ccccc2)c1` (stereo unspecified) registered a melting point of 170 to 172 °C.
As for `CCOC(=O)c1sc(CC)nc1C(F)(F)F`, the figure is 30 to 32 °C; as for `Fc1cccc(F)c1-c1nnc(-c2c(F)cccc2F)nn1`, 214 °C.
The result for `Cc1cc(Oc2cccc(C(F)(F)F)c2)nn1C(=O)Nc1cc(OC2CCCC2)c(Cl)cc1F` reads 81 to 83 °C.
The result for `CCc1cc(N)ccc1N1C(=O)c2ccc(Cl)cc2C1=O` reads 118 to 120 °C; that for `COc1ccc2c(c1)CC(n1cc[nH]c1=S)CC2` (stereo unspecified), 271 to 273 °C; that for `CCCCC1=C(C)C=NC1=O`, 95 to 97 °C.
Consider `O=C(O)C(=O)c1ccc(OCc2ccc3ccccc3c2)cc1`, for which the melting point lay within 145 to 146 °C.
The result for `CC(=O)n1nc(OCC(=O)C(C)(C)C)c(-c2ccccc2)c1-c1ccc(S(C)(=O)=O)cc1` reads 189 to 191 °C.
The result for `COc1cccc(C(O)c2cccnc2Cl)c1` (stereo unspecified) reads 114 to 115 °C.
With `COc1cc(N)c(SC)cc1OC`, the melting point lay in the range of 72 to 74 °C.
With `Cc1ccc2c(c1)C(C(=S)Nc1c(C(C)C)cccc1C(C)C)c1ccccc1CO2` (stereo unspecified), the melting point worked out at 140 °C.
As for `CCOC(=O)c1ccc(NCCC[Si](C)(C)C)cc1`, the figure is 64 to 66 °C.
For the compound `COP(=O)(OC)C(C)NC(=O)C(C)NC(=O)C(C)NC(=O)CNC(C)(C)C` (stereo unspecified), the melting point was 148 to 152 °C.
As for `COC(=O)c1cccc(Cl)c1NC(=O)CC1c2ccccc2Oc2ccccc21`, the figure is 178 to 179 °C; as for `O=C(c1cc(C(F)(F)F)cc(C(F)(F)F)c1)N1CCC2(CC1)C(=O)N(c1cc(Cl)ncn1)CN2c1ccccc1`, 212 to 214 °C; as for `CCOC(=O)N1CCc2nc3c(C(F)(F)F)cccc3c(C)c2CC1`, 136 °C.
The result for `CCOC(=O)c1ccc(-c2nc(COc3ccc(COc4nn(-c5ccccc5)cc4C=O)cc3OC)c(C)o2)s1` reads 156 to 157 °C; that for `CC(=O)c1cc([N+](=O)[O-])c(Cl)c([N+](=O)[O-])c1`, 86 to 86.5 °C; that for `CC(=O)CCC(CC=O)C(C)(C)OC(C)=O` (stereo unspecified), 24 °C.
As to `CC1NC(=O)NN=C1c1ccccc1OCc1ccccc1` (stereo unspecified), the melting point is 200 to 203 °C.
As for `CCOC(=O)c1cc(C=O)[nH]n1`, the figure is 133 to 134 °C; as for `CN1CCN(c2cccc3ccc(Nc4ccc([N+](=O)[O-])cn4)cc23)CC1`, 121 to 125 °C.
The compound `CN1CCC(c2cccc(F)c2)(C(C)(C)O)CC1` had a melting point of 158 to 159 °C.
As for `Cc1c(Cc2cccnc2)oc2ccc(Br)cc12`, the figure is 57 to 58 °C; as for `O=[N+]([O-])c1cc(I)cc(CF)c1`, 50.5 to 51.5 °C; as for `O=C(O)CCC/C=C/c1nn(-c2ccc([N+](=O)[O-])cc2)c2c1CCC2`, 163 to 164 °C.
As for `Cc1cccc(C)c1NC(=O)c1ccc(N)cc1`, the figure is 212 to 215 °C; as for `O=C(NCCN1CCCC1)N1CCN(c2ccc(F)cc2)CC1`, 100 to 102 °C; as for `OC1CSC(Oc2cc(-c3ccc(F)nc3)ccc2Cl)C(O)C1O` (stereo unspecified), 185 °C.
As for `COC(=N)COc1ccc(OC)cc1`, the figure is 95 to 96 °C; as for `CSc1nsc(NC(=O)C(C)(C)C)c1C(N)=O`, 142 to 143 °C.
For the compound `COc1cc(C(=O)c2c(C)c(C(=O)OCc3ccccc3)c3cc(NC(=O)OC(C)(C)C)ccn23)ccc1[N+](=O)[O-]`, the melting point was 95 °C.
Turning to `CN(C=O)c1cc(F)ccc1C(=O)COC(=O)c1ccccc1`, the melting point fell in the range of 93 to 95 °C.
The result for `CCCCCCCCCCCCCCCCCC(=O)OC1CC(C)(C)N(OC2CCCCC2)C(C)(C)C1` reads 44 to 47 °C.
For the compound `O=S(=O)(c1ccccc1)n1nc(-c2ccncc2)nc1-c1ccncc1`, the melting point fell in the range of 210 to 212 °C.
The result for `Cc1nc2c(c(=O)[nH]1)-c1cc(S(=O)(=O)Nc3ccc(C(N)=O)cc3)ccc1CC2` reads 190 °C.
The result for `Cc1cn(C2CCCCC2)c(=O)nc1NS(=O)(=O)c1ccc(N)cc1` reads 203 to 206 °C.
The result for `COc1cc(Oc2cccc(C(F)(F)F)c2)nc(C(=O)NC2CC2)c1` reads 106 to 109 °C.
`N#Cc1ccc(NCCc2[nH]c3c(cnc4cc(Cl)ccc43)c2C=O)cc1`: the melting point lay in the range of 203 to 206 °C.
As for `Cc1nc2c(OC3SCC(O)C(O)C3O)cccc2n1C` (stereo unspecified), the figure is 153 °C; as for `COc1ccc(S)nn1`, 198 to 200 °C; as for `Nc1nc(-c2ccco2)c(C(=O)C2CCC(=O)CC2)s1`, 232 to 235 °C.
Take `C=C1CCC2C3CCc4cc(O)c(C=O)cc4C3CCC12C` (stereo unspecified): the melting point fell in the range of 128 to 130 °C.
As for `CCCCOc1cc(/C=C(\OCC)C(=O)O)ccc1OCCc1ccc(OS(C)(=O)=O)cc1OC`, the figure is 112 °C; as for `C=CC(=O)Nc1ccc2c(Nc3cccc(Br)c3)ncnc2c1`, > 265 °C; as for `CN1C(O)=C(C(=O)Nc2ccc(Br)cc2)c2cscc2S1(=O)=O`, 138 to 140 °C.
`COc1ccc(C=C2OC(=O)c3ccccc32)cc1N` displayed a melting point of 148 to 153 °C.
As to `CN1CCC(O)(c2ccccc2CO)CC1`, the melting point is 118 to 119 °C.
As for `NC(=O)NCc1ccc(Cl)cc1`, the figure is 186 to 189 °C.
Take `CC1=C(C)C2=NC(C)(C(C)C)C(=O)N2C1=O` (stereo unspecified): the melting point fell in the range of 98 to 99 °C.
As for `CC(=O)NCCC[C@H]1NC(=O)[C@@H](Cc2cn(C)c3ccccc23)NC1=O`, the figure is 138 °C; as for `CN1C(C)(C(=O)OC(C)(C)C)COS1(=O)=O` (stereo unspecified), 54 to 55 °C; as for `N#Cc1cnc(N)nc1-c1ccc(Cl)cc1C(=O)c1ccccc1F`, 153 to 157 °C.
As for `CN1CCN(C2=Nc3cc(Cl)ccc3Nc3ccsc32)CC1`, the figure is 225 to 226 °C; as for `CC[Si](C#Cc1c2cc3ccccc3cc2c(C#C[Si](CC)(CC)CC)c2cc3ccccc3cc12)(CC)CC`, 210 °C; as for `CCc1c(-c2ccc(OCc3ccccc3)cc2)c2c(C(=O)OC)c(C(=O)OC)c3c(OCc4ccccc4)ccc1n32`, 115 to 120 °C.
As for `Cc1nccc2c3ccc(OCC4CCCCC4)cc3n(CC3CCCCC3)c12`, the figure is 152 °C.
Compound `COC(=O)/C=C/c1cccc(-c2c(CC(=O)Nc3ccc(Cl)cc3C(F)(F)F)c(=O)oc3cc(Cl)c(C)cc23)c1` returned a melting point of 202 to 204 °C.
As for `N#Cc1ccc(S(=O)(=O)Nc2cccc3c(C#N)c[nH]c23)cc1`, the figure is 250 to 252 °C.
